Columns and labels:
[1] = system: T. cruzi intracellular amastigotes in H9c2 cells; test: Rate-of-Kill (RoK) high-content imaging assay, amastigotes per cell (AM/CELL) and curve descriptors; type: cell-based, Trypanosoma cruzi; design: key to ME_24h / ME_48h / ME_72h: % reduction in parasite burden (cidal response); t50pct_MCC50 / t50pct_Cmax: unit not given here; conditions: for ME_24h: 24h; for ME_48h: 48h; for ME_72h: 72h; for t50%_Cmax / tlag_Cmax / t50pct_Cmax: at Cmax; for ME_24h (%): maximum effect at 24 h; for ME_24h (%) / ME_48h (%) / ME_72h (%): RoK assay; for ME_48h (%): maximum effect at 48 h; for ME_72h (%): maximum effect at 72 h; for ME 24h (maximum effect at 24 hours, intracellular amastigotes): maximum percentage of parasite burden reduction reached by any concentration
How it was run: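 Readouts at each time point are amastigotes per cell and host nuclei count (cytotoxicity), from DRAQ5 high-content imaging. Infection: trypomastigotes on H9c2 at MOI 8 for 18 h. Dosing was 5 μM single point or 11 points, 1/3 steps from 50 μM. Effect scaled between 4 h infected and uninfected controls.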

TcCYP51 = conditions: formerly reported; cited from earlier work

## COc1cccc(CCNC(=O)C(c2cn[nH]c2)N2CCN(c3ccc(Cl)cc3)CC2)c1 (centres unmarked) [TCMDC-143434]
[1]; figure 5
  ME_24h: 51.5158
  ME_48h: 102.276
  ME_72h: 117.751
  t50pct_Cmax: 24
  tlag_Cmax: 4
  MCCE: 0.06859
[1]; RoK curve descriptor
  MCC50: 5.6 µM
  MCCE: 0.07 µM
[1]; Time 4, sheet figure 4 A
  AM/CELL NORM: 2.576
[1]; Time 24, sheet figure 4 A
  AM/CELL NORM: 51.5158
[1]; Time 48, sheet figure 4 A
  AM/CELL NORM: 102.276
[1]; Time 72, sheet figure 4 A
  AM/CELL NORM: 117.751
[1]
  t50%_Cmax: 24.0 h
  tlag_Cmax: 4.0 h
  ME_24h (%): 51.5%
  ME_48h (%): 102.3%
  ME_72h (%): 117.8%
  ME 24h (maximum effect at 24 hours, intracellular amastigotes): 51.5158%
[1]; at MCC50
  t50%_MCC50: 72.0 h
  tlag_MCC50: 24.0 h
[1]; at MCC50, figure 5
  t50pct_MCC50: 72
  tlag_MCC50: 24
[1]; figure 5, in µM
  MCC50: 5.556
TcCYP51
  CYP51 pIC50: 7.2

## O=C(O)/C=C\C(=O)O.O=C(c1ccc(OCCCc2cnc[nH]2)cc1)C1CC1 [TCMDC-143632]
[1]; figure 5
  ME_24h: -9.2427
  ME_48h: 8.208
  ME_72h: 46.1088
  t50pct_Cmax: 72
  tlag_Cmax: 24
  MCC50: 50 µM
  MCCE: 5.556
[1]; RoK curve descriptor
  MCCE: 5.6 µM
[1]; Time 4, sheet figure 4 A
  AM/CELL NORM: 10.5519
[1]; Time 24, sheet figure 4 A
  AM/CELL NORM: -53.2211
[1]; Time 48, sheet figure 4 A
  AM/CELL NORM: -4.213
[1]; Time 72, sheet figure 4 A
  AM/CELL NORM: 38.8877
[1]
  tlag_Cmax: 24.0 h
  ME_24h (%): -9.2%
  ME_48h (%): 8.2%
  ME_72h (%): 46.1%
  ME 24h (maximum effect at 24 hours, intracellular amastigotes): -9.2427%
[1]; at MCC50, figure 5
  t50pct_MCC50: 72
  tlag_MCC50: 72
TcCYP51
  CYP51 pIC50: 7.3

## COc1ccc2ncc(=O)n(CCN3CCOC(CNCc4ccc(C(F)(F)F)cc4F)C3)c2n1 (centres unmarked) [TCMDC-143384]
[1]; figure 5
  ME_24h: -27.6403
  ME_48h: -15.9254
  ME_72h: -18.8553
  t50pct_Cmax: 72
  tlag_Cmax: 24
  MCC50: 50 µM
  MCCE: 0.6173
[1]; RoK curve descriptor
  MCCE: 0.6 µM
[1]; Time 4, sheet figure 4 A
  AM/CELL NORM: -15.3138
[1]; Time 24, sheet figure 4 A
  AM/CELL NORM: -27.6403
[1]; Time 48, sheet figure 4 A
  AM/CELL NORM: -15.9254
[1]; Time 72, sheet figure 4 A
  AM/CELL NORM: -18.8553
[1]
  tlag_Cmax: 24.0 h
  ME_24h (%): -27.6%
  ME_48h (%): -15.9%
  ME_72h (%): -18.9%
  ME 24h (maximum effect at 24 hours, intracellular amastigotes): -27.6403%
[1]; at MCC50, figure 5
  t50pct_MCC50: 72
  tlag_MCC50: 72
TcCYP51
  CYP51 pIC50: 5

## Cc1sc(C)c(C(F)(F)F)c1CNCCCNc1cc(=O)c2ccccc2[nH]1.Cl [TCMDC-140766]
[1]
  ME (maximum effect) in RoK assay (in words): high ME at 24 hours and 72 hours
  tlag (in words): short tlag times
  t50%_Cmax: 24.0 h
  tlag_Cmax: 4.0 h
  ME_24h (%): 54.6%
  ME_48h (%): 64.2%
  ME_72h (%): 71.6%
  ME 24h (maximum effect at 24 hours, intracellular amastigotes): 58.2122%
[1]; figure 5
  ME_24h: 54.6006
  ME_48h: 64.1651
  ME_72h: 71.5778
  t50pct_Cmax: 24
  tlag_Cmax: 4
  MCCE: 0.6173
[1]; RoK curve descriptor
  MCC50: 5.6 µM
  MCCE: 0.6 µM
[1]; Time 4, figure 4 A
  AM/CELL NORM: 7.643
[1]; Time 24, figure 4 A
  AM/CELL NORM: 58.2122
[1]; Time 48, figure 4 A
  AM/CELL NORM: 67.454
[1]; Time 72, figure 4 A
  AM/CELL NORM: 69.5653
[1]; at MCC50
  t50%_MCC50: 72.0 h
  tlag_MCC50: 4.0 h
[1]; at MCC50, figure 5
  t50pct_MCC50: 72
  tlag_MCC50: 4
[1]; figure 5, in µM
  MCC50: 5.556
TcCYP51
  CYP51 pIC50: 4.7

## CNc1cc(C)nc(C2CN(C(=O)c3n[nH]c4ccccc34)CCO2)c1 (centres unmarked) [TCMDC-143494]
[1]; figure 5
  ME_24h: 32.4456
  ME_48h: 71.1038
  ME_72h: 67.5793
  t50pct_Cmax: 48
  tlag_Cmax: 4
  MCC50: 50 µM
  MCCE: 1.852
[1]; RoK curve descriptor
  MCC50: 50.0 µM
  MCCE: 1.9 µM
[1]; Time 4, sheet figure 4 A
  AM/CELL NORM: 7.648
[1]; Time 24, sheet figure 4 A
  AM/CELL NORM: 27.7451
[1]; Time 48, sheet figure 4 A
  AM/CELL NORM: 71.1038
[1]; Time 72, sheet figure 4 A
  AM/CELL NORM: 67.5793
[1]
  t50%_Cmax: 48.0 h
  tlag_Cmax: 4.0 h
  ME_24h (%): 32.5%
  ME_48h (%): 71.1%
  ME_72h (%): 67.6%
  ME 24h (maximum effect at 24 hours, intracellular amastigotes): 32.4456%
[1]; at MCC50
  t50%_MCC50: 48.0 h
  tlag_MCC50: 4.0 h
[1]; at MCC50, figure 5
  t50pct_MCC50: 48
  tlag_MCC50: 4
TcCYP51
  CYP51 pIC50: < 4

## O=C(N1CCc2ccccc2CC1)C1(C(=O)N2CCC(n3c(=O)[nH]c4ncccc43)CC2)CC1.O=C(O)C(F)(F)F [TCMDC-143381]
[1]; figure 5
  ME_24h: -241.612
  ME_48h: -106.513
  ME_72h: 38.7809
  t50pct_Cmax: 72
  tlag_Cmax: 24
  MCC50: 50 µM
  MCCE: 1.852
[1]; RoK curve descriptor
  MCCE: 1.9 µM
[1]; Time 4, sheet figure 4 A
  AM/CELL NORM: 8.613
[1]; Time 24, sheet figure 4 A
  AM/CELL NORM: -274.305
[1]; Time 48, sheet figure 4 A
  AM/CELL NORM: -155.332
[1]; Time 72, sheet figure 4 A
  AM/CELL NORM: 34.067
[1]
  tlag_Cmax: 24.0 h
  ME_24h (%): -241.6%
  ME_48h (%): -106.5%
  ME_72h (%): 38.8%
  ME 24h (maximum effect at 24 hours, intracellular amastigotes): -241.612%
[1]; at MCC50, figure 5
  t50pct_MCC50: 72
  tlag_MCC50: 72
TcCYP51
  CYP51 pIC50: 6.5

Reference: publication PMC8318231, “Rate-of-Kill (RoK) assays to triage large compound sets for Chagas disease drug discovery: Application to GSK Chagas Box” (PLoS Neglected Tropical Diseases, 2021)
